What was measured:
CSNK1D = CSNK1D (Homo sapiens (Human), UniProt P48730); assay: CSNK1D Assay (ADP-Glo, 1 μM ATP); assay type: biochemical; conditions: median, read-out: CSNK1D IC50 [mol/l] (median)
Protocol: CSNK1D-inhibitory activity of compounds of the present invention in presence of 1 μM adenosine-tri-phosphate (ATP) was quantified employing the CSNK1 D assay as described in the following paragraphs. In essence, the enzyme activity is measured by quantification of the adenosine-di-phosphate (ADP), which is generated as a co-product of the enzyme reaction, via the “ADP-Glo™ Kinase Assay” kit from the company Promega. This detection system works as follows: In a first step the ATP not consumed in the kinase reaction is quantitatively converted to cAMP employing an adenylate cyclase (“ADP-Glo-reagent”), then the adenylate cyclase is stopped and the ADP generated in the kinase reaction converted to ATP which generates in a luciferase-based reaction a glow-luminescence signal (“Kinase Detection Reagent”).
As substrate for the kinase reaction the biotinylated peptide Btn-Ahx-[…] (C-terminus in amide form) was used which can be purchased e.g. from the company Biosyntan (Berlin-Buch, Germany).
For the assay 50 nl of a 100 fold concentrated solution of the test compound in DMSO was pipetted into a white 1536-well microtiter plate (Greiner Bio-One, Frickenhausen, Germany), 2 μL of a solution of CSNK1D in aqueous assay buffer [50 mM HEPES pH 7.5, 10% (v/v) glycerol, 10 mM MgCl2, 50 mM NaCl, 1 mM dithiothreitol, 0.01% (w/v) bovine serum albumin, 0.01% (v/v) Triton X-100] were added and the mixture was incubated for 15 min at 22° C. to allow pre-binding of the test compounds to the enzyme before the start of the kinase reaction. […] The concentration of CSNK1D was adjusted depending of the activity of the enzyme lot and was chosen appropriate to have the assay in the linear range, a typical concentration is about 0.5 ng/μL. The reaction was stopped by the addition of 2.5 μL of “ADP-Glo-reagent” (1:1.5 fold diluted with water) and the resulting mixture was incubated at 22° C. for 1 h to convert the ATP not consumed in the kinase reaction completely […]. Subsequently 2.5 μL of the “kinase detection reagent” (1.2 fold more concentrated than recommended by the producer) were added, the resulting mixture was incubated at 22° C. for 1 h and then the luminescence measured with a suitable measurement instrument (e.g. Viewlux™ from Perkin-Elmer). The amount of emitted light was taken as a measure for the amount of ADP generated and thereby for the activity of the CSNK1D.

CSNK1A1 = CSNK1A1 (Homo sapiens (Human), UniProt P48729); assay: CSNK1A1 Assay 2 (ADP-Glo, 1 μM ATP); assay type: biochemical; conditions: median, read-out: CSNK1A1 Assay 2 IC50 [mol/l] (median)
Protocol: CSNK1A1-inhibitory activity of compounds of the present invention in presence of 1 μM adenosine-tri-phosphate (ATP) was quantified employing the CSNK1A1 assay as described in the following paragraphs. In essence, the enzyme activity is measured by quantification of the adenosine-di-phosphate (ADP), which is generated as a co-product of the enzyme reaction, via the “ADP-Glo™ Kinase Assay” kit from the company Promega. This detection system works as follows: In a first step the ATP not consumed in the kinase reaction is quantitatively converted to cAMP employing an adenylate cyclase (“ADP-Glo-reagent”), then the adenylate cyclase is stopped and the ADP generated in the kinase reaction converted to ATP which generates in a luciferase-based reaction a glow-luminescence signal (“Kinase Detection Reagent”).
As substrate for the kinase reaction the biotinylated peptide biotin-Ahx-KRRRAL-pS-VASLPGL (C-terminus in amide form) was used which can be purchased e.g. from the company Biosyntan (Berlin-Buch, Germany).
For the assay 50 nl of a 100 fold concentrated solution of the test compound in DMSO was pipetted into a white 1536-well microtiter plate (Greiner Bio-One, Frickenhausen, Germany), 2 μL of a solution of CSNK1A1 in aqueous assay buffer [50 mM HEPES pH 7.5, 10% (v/v) glycerol, 10 mM MgCl2, 50 mM NaCl, 1 mM dithiothreitol, 0.01% (w/v) bovine serum albumin, 0.01% (v/v) Triton X-100] were added and the mixture was incubated for 15 min at 22° C. to allow pre-binding of the test compounds to the enzyme before the start of the kinase reaction. […] The concentration of CSNK1A1 was adjusted depending of the activity of the enzyme lot and was chosen appropriate to have the assay in the linear range, a typical concentrations are about 0.0375 ng/μL. The reaction was stopped by the addition of 2.5 μL of “ADP-Glo-reagent” (1:1.5 fold diluted with water) and the resulting mixture was incubated at 22° C. for 1 h to convert the ATP not consumed in the kinase reaction completely […]. Subsequently 2.5 μL of the “kinase detection reagent” (1.2 fold more concentrated than recommended by the producer) were added, the resulting mixture was incubated at 22° C. for 1 h and then the luminescence measured with a suitable measurement instrument (e.g. Viewlux™ from Perkin-Elmer). The amount of emitted light was taken as a measure for the amount of ADP generated and thereby for the activity of the CSNK1A1.

Sequence of CSNK1A1 (P48729 whole entry): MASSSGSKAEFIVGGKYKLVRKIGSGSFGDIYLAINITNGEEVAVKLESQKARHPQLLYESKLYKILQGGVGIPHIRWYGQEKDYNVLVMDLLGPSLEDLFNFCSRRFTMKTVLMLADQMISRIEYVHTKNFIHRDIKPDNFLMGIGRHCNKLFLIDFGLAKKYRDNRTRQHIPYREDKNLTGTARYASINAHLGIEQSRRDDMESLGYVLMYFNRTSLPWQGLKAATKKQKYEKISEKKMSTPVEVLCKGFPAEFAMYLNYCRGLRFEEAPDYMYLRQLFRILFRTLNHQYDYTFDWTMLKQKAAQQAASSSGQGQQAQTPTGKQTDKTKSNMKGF
Sequence of CSNK1D (P48730 whole entry): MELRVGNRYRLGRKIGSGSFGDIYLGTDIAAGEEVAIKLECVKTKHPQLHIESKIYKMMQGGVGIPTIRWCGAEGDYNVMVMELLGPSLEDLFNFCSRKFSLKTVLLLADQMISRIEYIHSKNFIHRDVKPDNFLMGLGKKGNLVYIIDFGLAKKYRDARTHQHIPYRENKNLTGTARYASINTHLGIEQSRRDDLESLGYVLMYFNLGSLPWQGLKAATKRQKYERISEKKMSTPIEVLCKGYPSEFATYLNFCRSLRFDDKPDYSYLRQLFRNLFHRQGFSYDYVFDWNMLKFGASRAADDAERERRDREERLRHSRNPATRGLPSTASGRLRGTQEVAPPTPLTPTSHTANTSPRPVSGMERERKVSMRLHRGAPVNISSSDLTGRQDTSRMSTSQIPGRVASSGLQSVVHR

| SMILES | IC50 (CSNK1D) [nM] | IC50 (CSNK1A1) [nM] |
| --- | --- | --- |
| CN1CCc2[nH]c(-c3ccnc(NC(=O)C(CC(F)F)c4ccc(F)cc4)c3)c(-c3ccccc3)c2C1=O (racemic) [Example 2, 4,4-difluoro-2-(4-fluorophenyl)-N-[4-(5-methyl-4-oxo-3-phenyl-4,5,6,7-tetrahydro-1H-pyrrolo[3,2-c]pyridin-2-yl)pyridin-2-yl]butanamide] | 3.3 | 1.7 |
| CN1CCc2[nH]c(-c3ccnc(NC(=O)C(CC(F)F)c4ccc(F)cc4)c3)c(-c3cccnc3)c2C1=O (racemic) [Example 9, 4,4-difluoro-2-(4-fluorophenyl)-N-{4-[5-methyl-4-oxo-3-(pyridin-3-yl)-4,5,6,7-tetrahydro-1H-pyrrolo[3,2-c]pyridin-2-yl]pyridin-2-yl}butanamide] | 9.2 | 7.8 |
| CC(C(=O)Nc1cc(-c2[nH]c3c(CC(F)(F)F)cn(C)c(=O)c3c2-c2ccccc2)ccn1)c1ccc(F)cc1 (racemic) [Example 14, 2-(4-fluorophenyl)-N-{4-[5-methyl-4-oxo-3-phenyl-7-(2,2,2-trifluoroethyl)-4,5-dihydro-1H-pyrrolo[3,2-c]pyridin-2-yl]pyridin-2-yl}propanamide] | 2.7 | 4.7 |
| Cn1cc(CC(F)(F)F)c2[nH]c(-c3ccnc(NC(=O)C(CC(F)F)c4ccc(F)cc4)c3)c(-c3ccccc3)c2c1=O (racemic) [Example 18, 4,4-difluoro-2-(4-fluorophenyl)-N-{4-[5-methyl-4-oxo-3-phenyl-7-(2,2,2-trifluoroethyl)-4,5-dihydro-1H-pyrrolo[3,2-c]pyridin-2-yl]pyridin-2-yl}butanamide] | 3.1 | 5.9 |
| CC(C(=O)Nc1cc(-c2[nH]c3c(CC(F)(F)F)cn(C)c(=O)c3c2-c2ccc(F)cc2)ccn1)c1ccc(F)cc1 (racemic) [Example 22, 2-(4-fluorophenyl)-N-{4-[3-(4-fluorophenyl)-5-methyl-4-oxo-7-(2,2,2-trifluoroethyl)-4,5-dihydro-1H-pyrrolo[3,2-c]pyridin-2-yl]pyridin-2-yl}propanamide] | 3.2 | 6.2 |
| Cn1cc(CC(F)(F)F)c2[nH]c(-c3ccnc(NC(=O)C(CC(F)F)c4ccc(F)cc4)c3)c(-c3ccc(F)cc3)c2c1=O (racemic) [Example 26, 4,4-difluoro-2-(4-fluorophenyl)-N-{4-[3-(4-fluorophenyl)-5-methyl-4-oxo-7-(2,2,2-trifluoroethyl)-4,5-dihydro-1H-pyrrolo[3,2-c]pyridin-2-yl]pyridin-2-yl}butanamide] | 7.1 | 11 |
| Cc1cn(C)c(=O)c2c(-c3ccc(F)cc3)c(-c3ccnc(NC(=O)C(C)c4ccc(F)cc4)c3)[nH]c12 (racemic) [Example 30, 2-(4-fluorophenyl)-N-{4-[3-(4-fluorophenyl)-5,7-dimethyl-4-oxo-4,5-dihydro-1H-pyrrolo[3,2-c]pyridin-2-yl]pyridin-2-yl}propanamide] | 3.8 | 5.7 |
| Cc1cn(C)c(=O)c2c(-c3ccc(F)cc3)c(-c3ccnc(NC(=O)C(CC(F)F)c4ccc(F)cc4)c3)[nH]c12 (racemic) [Example 34, 4,4-difluoro-2-(4-fluorophenyl)-N-{4-[3-(4-fluorophenyl)-5,7-dimethyl-4-oxo-4,5-dihydro-1H-pyrrolo[3,2-c]pyridin-2-yl]pyridin-2-yl}butanamide] | 5.3 | 5.8 |
| Cc1cn(C)c(=O)c2c(-c3ccccc3)c(-c3ccnc(NC(=O)C(C)c4ccc(F)cc4)c3)[nH]c12 (racemic) [Example 38, N-[4-(5,7-dimethyl-4-oxo-3-phenyl-4,5-dihydro-1H-pyrrolo[3,2-c]pyridin-2-yl)pyridin-2-yl]-2-(4-fluorophenyl)propanamide] | 7.1 | 7.8 |
| Cc1cn(C)c(=O)c2c(-c3ccccc3)c(-c3ccnc(NC(=O)C(CC(F)F)c4ccc(F)cc4)c3)[nH]c12 (racemic) [Example 40, N-[4-(5,7-dimethyl-4-oxo-3-phenyl-4,5-dihydro-1H-pyrrolo[3,2-c]pyridin-2-yl)pyridin-2-yl]-4,4-difluoro-2-(4-fluorophenyl)butanamide] | 4 | 4 |
| CC1(C)CNC(=O)c2c1[nH]c(-c1ccnc(NC(=O)C(CC(F)F)c3ccc(F)cc3)c1)c2-c1ccccc1 (racemic) [Example 43, N-[4-(7,7-dimethyl-4-oxo-3-phenyl-4,5,6,7-tetrahydro-1H-pyrrolo[3,2-c]pyridin-2-yl)pyridin-2-yl]-4,4-difluoro-2-(4-fluorophenyl)butanamide] | 2.7 | 2.6 |
| CC(C(=O)Nc1cc(-c2[nH]c3c(c2-c2ccccc2)C(=O)NCC3(C)C)ccn1)c1ccc(F)cc1 (racemic) [Example 46, N-[4-(7,7-dimethyl-4-oxo-3-phenyl-4,5,6,7-tetrahydro-1H-pyrrolo[3,2-c]pyridin-2-yl)pyridin-2-yl]-2-(4-fluorophenyl)propanamide] | 3.3 | 2.7 |
| CN1C(=O)c2c([nH]c(-c3ccnc(NC(=O)C(CC(F)F)c4ccc(F)cc4)c3)c2-c2ccccc2)CC12CCC2 (racemic) [Example 49, 4,4-difluoro-2-(4-fluorophenyl)-N-[4-(5′-methyl-4′-oxo-3′-phenyl-1′,4′,5′,7′-tetrahydrospiro[cyclobutane-1,6′-pyrrolo[3,2-c]pyridin]-2′-yl)pyridin-2-yl]butanamide] | 4.5 | 4.6 |
| CC(C(=O)Nc1cc(-c2[nH]c3c(c2-c2ccccc2)C(=O)N(C)C2(CCC2)C3)ccn1)c1ccc(F)cc1 (racemic) [Example 52, 2-(4-fluorophenyl)-N-[4-(5′-methyl-4′-oxo-3′-phenyl-1′,4′,5′,7′-tetrahydrospiro[cyclobutane-1,6′-pyrrolo[3,2-c]pyridin]-2′-yl)pyridin-2-yl]propanamide] | 3.8 | 3.4 |
| CN1CC(CC2CC2)c2[nH]c(-c3ccnc(NC(=O)Cc4ccc(F)cc4)c3)c(-c3ccccc3)c2C1=O (racemic) [Example 55, N-{4-[7-(cyclopropylmethyl)-5-methyl-4-oxo-3-phenyl-4,5,6,7-tetrahydro-1H-pyrrolo[3,2-c]pyridin-2-yl]pyridin-2-yl}-2-(4-fluorophenyl)acetamide] | 2.2 | 2 |
| CC(C(=O)Nc1cc(-c2[nH]c3c(CC4CC4)cn(C)c(=O)c3c2-c2ccccc2)ccn1)c1ccc(F)cc1 (racemic) [Example 58, N-{4-[7-(cyclopropylmethyl)-5-methyl-4-oxo-3-phenyl-4,5-dihydro-1H-pyrrolo[3,2-c]pyridin-2-yl]pyridin-2-yl}-2-(4-fluorophenyl)propanamide] | 4 | 5.2 |

Source: patent US20230322767A1, “ARYL SUBSTITUTED PYRROLO-PYRIDINONES AND THERAPEUTIC USES THEREOF” (Bayer Aktiengesellschaft, priority 2020, published 2023)
